This note sets out measurements from patent US6262104A, “Diarylalkenylamine derivatives” (SmithKline Beecham p.l.c., priority 1995, dated 2001).

Structures can show the parent of a compound that is named as a salt.

The target of this assay is T1, delta (Mus musculus, UniProt P32300).
T1 construct: Vasa deferentia were obtained from CD-1 mice; from tissue; host or cells: vas deferens of CD-1 mice
Description: Mouse vas deferens (MVD) bioassay, delta agonist/antagonist activity. As to conditions: CD-1 mouse vasa deferentia, electrically stimulated, Mg2+-free Krebs buffer, 37° C. On the procedure:
The delta agonist/antagonist activity of the compounds of the present invention is determined in the mouse vas deferens (MVD) bioassay as described below.
Vasa deferentia were obtained from CD-1 mice and were suspended in a Mg^2+ - free Krebsa buffer at 37° C. The tissues were electrically stimulated with pulse trains having the following parameters: train duration 50 ms, stimulus duration 2 ms, frequency of stimuli 50 Hz, maximal voltage 60-70 V, train frequency 0.1 Hz. Concentration response curves for each compounds were constructed cumulatively. Linear regression analysis and IC50 concentrations were evaluated according to Talarida and Murray (Manual of Pharmacological Calculations, Springer Verlag NY, 1981).

T1 sequence (P32300 whole entry): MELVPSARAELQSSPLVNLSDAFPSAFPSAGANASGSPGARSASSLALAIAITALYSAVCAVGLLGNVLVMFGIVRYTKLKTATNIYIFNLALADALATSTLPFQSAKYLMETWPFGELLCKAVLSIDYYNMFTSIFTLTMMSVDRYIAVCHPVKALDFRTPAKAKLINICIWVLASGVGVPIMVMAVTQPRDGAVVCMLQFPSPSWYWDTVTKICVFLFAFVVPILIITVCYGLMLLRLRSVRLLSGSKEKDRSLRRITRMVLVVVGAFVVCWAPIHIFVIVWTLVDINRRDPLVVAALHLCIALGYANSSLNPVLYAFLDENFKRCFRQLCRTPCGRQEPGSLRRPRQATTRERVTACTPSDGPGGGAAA

For orientation: IC50 means the concentration at which inhibition is half-maximal. Take `CCN(CC)C(=O)c1ccc(/C(=C\CN2CCCC2)c2cccc(O)c2)cc1` [Example 2, (E)-N,N-Diethyl-4-[[1-(3-hydroxyphenyl)-3-pyrrolidin-1-yl]-1-propenyl]benzamide citrate]: the IC50 stood at 30 nM.
